Measured values: publication PMC11687724, “Mechanism of connexin channel inhibition by mefloquine and 2-aminoethoxydiphenyl borate” (PLOS ONE, 2024)

What was measured:
Cx32 [1] = molecular target: T1, Cx32 (Homo sapiens, UniProt P08034); experiment: biochemical; set-up: gene GJB1
Cx32 [2] = molecular target: T1, Cx32; experiment: tryptophan fluorescence quenching; cryo-EM of Cx32 GJC at […] Å; dye uptake and gap-FRAP; format: binding; set-up: gene GJB1; purified Cx32 (gap junction channel)
Cx43 = molecular target: T2, Cx43 (Homo sapiens, UniProt P17302); experiment: cryo-EM of Cx43 GJC at […] Å; gap-FRAP in HEK293F cells; format: binding
T2 construct: gene GJA1; Cx43 gap junction channel
T2 sequence (P17302 2-382): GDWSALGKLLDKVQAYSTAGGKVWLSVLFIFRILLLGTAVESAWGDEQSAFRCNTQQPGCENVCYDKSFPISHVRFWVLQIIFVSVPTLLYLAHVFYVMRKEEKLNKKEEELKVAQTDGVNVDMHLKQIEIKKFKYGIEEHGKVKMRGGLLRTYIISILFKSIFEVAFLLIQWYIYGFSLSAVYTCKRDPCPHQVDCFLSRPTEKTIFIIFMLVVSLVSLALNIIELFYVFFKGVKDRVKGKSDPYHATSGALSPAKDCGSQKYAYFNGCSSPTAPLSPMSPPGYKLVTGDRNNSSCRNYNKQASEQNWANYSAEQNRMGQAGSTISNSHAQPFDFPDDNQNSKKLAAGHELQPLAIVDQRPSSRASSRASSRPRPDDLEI

T1 sequence (P08034 whole entry): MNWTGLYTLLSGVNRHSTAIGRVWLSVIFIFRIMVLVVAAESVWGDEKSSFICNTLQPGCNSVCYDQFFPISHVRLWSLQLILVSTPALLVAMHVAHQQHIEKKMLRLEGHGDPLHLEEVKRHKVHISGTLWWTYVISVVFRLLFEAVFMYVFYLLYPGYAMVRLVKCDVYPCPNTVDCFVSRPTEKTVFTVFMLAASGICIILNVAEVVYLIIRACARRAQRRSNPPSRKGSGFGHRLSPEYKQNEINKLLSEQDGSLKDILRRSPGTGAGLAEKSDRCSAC

| SMILES | Kd (Cx32 [1]) | Kd (Cx32 [2]) | cryo-EM of Cx43 GJC at 3.7 Å; gap-FRAP in HEK293F cells (Cx43) |
| --- | --- | --- | --- |
| NCCOB(c1ccccc1)c1ccccc1 [2APB, 2-aminoethoxydiphenyl borate] | 1050 nM | – | – |
| O[C@H](c1cc(C(F)(F)F)nc2c(C(F)(F)F)cccc12)[C@@H]1CCCCN1 (racemic) [MFQ, mefloquine] | – | 43.1 µM | a prominent additional density corresponding to MFQ was observed within the region corresponding to site M |
